From PubChem BioAssay AID1918946 (Molecular Pharmacology Branch, DTP, NCI, 2023) come the findings set out here.

Values joined by “and” are separate entries in the source; they are usually repeats but may differ in a detail not shown here. Equal values may be shown once. Active and inactive are the calls of the source. Rule for the calls: active = viability on the fitted dose curve at most 10% of control; inactive = the rest.

For the assay, the system named is 885512-296-R-J2-PDC complex spheroid viability. In words: Anticancer human tumor 885512-296-R-J2-PDC patient-derived breast carcinoma cell line growth inhibition. The conditions noted are these: for viability, T/C: stronger effect = lower value. From the text: Multicellular complex tumor spheroid response to LSD1 Inhibitor Iadademstat in combination with a variety of drugs and investigational agents in selected tumor cell lines
The current study was undertaken to assess response to LSD1 inhibitors in combination with standard-of-care drugs and investigational agents in solid tumor complex spheroid models as well as in the K-562 leukemia. Complex spheroids include a stromal component modeled by human endothelial cells (HUVEC) and fibroblasts modeled by human mesenchymal stem cells (MSCs). The concentration ranges selected for each drug and investigational agent were based upon clinically achievable concentrations if the clinical Cmax of the agent was known.
Compounds. The drugs and investigational agents used in this study are listed on Table 1. All of the agents used, including staurosporine (NSC755774) and gemcitabine (NSC613327), were obtained from the Developmental Therapeutics Program, NCI. FDA-approved anticancer drugs are available from the NCI at http://dtp.nci.nih.gov/branches/dscb/oncology_drugset_explanation.html. Drugs and investigational agents were >95% pure by proton nuclear magnetic resonance (NMR) and liquid chromatography/mass spectrometry (LC/MS). Stock solutions were prepared at 400x in DMSO, stored at -70 degrees C, and diluted in fresh medium prior to their use. The final concentration of DMSO in cell culture wells never exceeded 0.25% (v/v). The FDA-approved anticancer drug set is available from the Developmental Therapeutics Program at https://dtp.cancer.gov/organization/dscb/obtaining/available_plates.htm. All drugs and investigational agents were tested over a range starting from a high concentration at or near the clinical Cmax and decreasing in half-log increments. If the clinical Cmax for an agent had not been determined, the highest concentration tested was 10 microM.
Cell Lines. The patient-derived cancer cell (PDC) lines: 292921-168-R-J2-PDC, K24384-001-R-PDC, and 521955-158-R2-J5-PDC pancreatic carcinomas, 556581-035-R-J1 ovarian carcinoma, 324938-238-R-J1-PDC, 855422-203-R-J1-PDC and 883617-216-R-J1-PDC urothelial bladder carcinomas, 743489-274-T-PDC renal cell carcinoma, 138582-R-J1 Merkel cell tumor, K60290-347-R-J1 and K57222-313-R-J1-PDC glioblastomas, 653999-131-R-J2-PDC, LG0703-F948-PDC, and 349418-098-R-PDC non-small cell lung carcinomas, 885512-296-R-J2-PDC, 171881-019-R-J1-PDC breast carcinomas and 186277-243-T-J2-PDC and 233499-124-R-J2-PDC colon carcinomas were obtained from the NCI Patient-Derived Models Repository (PDMR, https://pdmr.cancer.gov). The established cell lines NCI/ADR-RES (RRID:CVCL_14520 and OVCAR-5 (RRID:CVCL_1628) ovarian carcinomas, 786-O (RRID:CVCL_1051) and A498 (RRID:CVCL_A498) renal cell carcinoma, NCI-H211 (ATCC, cat. CRL-5824; RRID:CVCL_1529), NCI-H196 (ATCC, cat. CRL-5823, RRID:CVCL_1509), SW 1271 (ATCC, cat. CRL-2177, RRID:CVCL_1716) and NCI-H1876 (ATCC, cat. CRL-5902, RRID:CVCL_1503) small cell lung carcinomas, MDA-MB-231 (RRID:CVCL_0062) and MDA-MB-468 (RRID:CVCL_0419)breast carcinomas (10-12). Pooled donor human umbilical vein endothelial cells (HUVEC, Lonza, cat. CC-2519) and human mesenchymal stem cells (hMSC, Lonza, cat. PT-2501) were purchased from Lonza (Walkersville, MD).
Cell Culture. All cells were maintained in an incubator at 37 degrees C and 5% CO2 with 95% humidity. The PDC lines were cultured according to standard operating procedures established by the NCI PDMR (https://pdmr.cancer.gov). Briefly all PDCs were thawed and cultured in Matrigel-coated flasks prepared with a working solution of 1X Ham's F-12 nutrient mix, without supplementation (Invitrogen, Waltham, MA, cat. 11765054), 100 U/mL penicillin-streptomycin (Invitrogen, cat. 15140122), and 2.5% Matrigel (Corning Inc., Corning, NY, cat. 354248) for the first three passages. […]
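Throughout, for IC50: spheroids exposed to agents for 7 days before viability read.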
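Throughout, for viability, T/C: spheroids exposed to agents for 7 days before viability read.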

`CC(C)c1c(-c2ccccc2)nc2c(C#N)c[nH]n2c1=O`: the viability, T/C by setting is: (compound 0.0316 µM) 90.7% and 86%; (compound 0.1 µM) 106% and 89.1%; (compound 0.316 µM) 86.7% and 80.9%; (compound 1 µM) 99.3% and 81%; (compound 3.16 µM) 92.9% and 87.5%; (compound 10 µM) 57%. In addition, the outcome (compound 10 µM) was active. The IC50 (curve of compound) was 4130 nM and > 10000 nM.
As for `CC1(C)CCC(CN2CCN(c3ccc(C(=O)NS(=O)(=O)c4ccc(NCC5CCOCC5)c([N+](=O)[O-])c4)c(Oc4cnc5[nH]ccc5c4)c3)CC2)=C(c2ccc(Cl)cc2)C1`, the viability, T/C is 121% and 95.1% (compound 0.0316 µM); 109% and 91% (compound 0.1 µM); 89.3% and 82% (compound 0.316 µM); 72.6% and 61.4% (compound 1 µM); 63.1% and 19.3% (compound 3.16 µM); 10.2% and 0.17% (compound 10 µM). For the setting “curve of compound”, the IC50 is 3310 nM and 1320 nM.
For `CC1COCCN1c1cc(-c2ccnn2C)c2ccnc(-c3ccn[nH]3)c2n1` (centres undefined), the viability, T/C runs as follows: (compound 0.01 µM) 6.26% and 3.04%; (compound 0.0316 µM) 2.66% and 1.79%; (compound 0.1 µM) 2.1% and 2.15%; (compound 0.316 µM) 4.57% and 2.49%; (compound 1 µM) 11.1% and 3.37%. Moreover, for the setting “curve of compound”, the IC50 was less than 3.16 nM.
As for `CC1COCCN1c1cc(C2(S(C)(=N)=O)CC2)nc(-c2ccnc3[nH]ccc23)n1` (centres undefined), the viability, T/C reads like this: (compound 0.0316 µM) 89.7% and 84.5%; (compound 0.1 µM) 69.7% and 90.6%; (compound 0.316 µM) 14.4% and 49.3%; (compound 1 µM) 7.6% and 9.02%; (compound 3.16 µM) 7.26% and 2.77%; (compound 10 µM) 7.13% and 1.85%. Further, where the note is “curve of compound”, the IC50 was 151 nM and 317 nM.
For the molecule `CCN(c1cc(-c2ccc(CN3CCOCC3)cc2)cc(C(=O)NCc2c(C)cc(C)[nH]c2=O)c1C)C1CCOCC1`, the viability, T/C (compound 0.00949 µM) was 92.3% and 81.8%; the viability, T/C (compound 0.03 µM) was 80.2% and 89.8%; the viability, T/C (compound 0.0949 µM) is 74.8% and 68%; the viability, T/C (compound 0.3 µM) is 60.2% and 35.7%; the viability, T/C (compound 0.949 µM) is 76.2% and 18.2%; the viability, T/C (compound 3 µM) is 25.1% and 7.11%. The IC50 (curve of compound) was 1700 nM and 188 nM.
`COc1ccc([C@@H](O)c2cc(-c3ncnc4cc(N5CCOCC5)ccc34)c(F)cc2Cl)nn1`: the viability, T/C was 83.8% and 95.7% (compound 0.0316 µM); 96.8% and 82.8% (compound 0.1 µM); 81.9% and 61.3% (compound 0.316 µM); 52.8% and 50.3% (compound 1 µM); 16.6% and 37.4% (compound 3.16 µM); 10.3% and 9.6% (compound 10 µM). The IC50 (curve of compound) is 1080 nM and 980 nM.
Turning to `NC1CC1c1ccc(-c2cccc(O)c2)cc1` (centres undefined), where the note is “compound 0.1 µM”, the viability, T/C is 133%. In addition, the IC50 (compound alone, run of 02/01/2022) is greater than 10000 nM.
`NC1CCC(NC2CC2c2ccccc2)CC1` (centres undefined): the viability, T/C (compound 0.316 µM) is 121% (2×) and 120%. The IC50 (compound alone, run of 01/24/2022) was greater than 10000 nM.
With `NS(=O)(=O)OCC1CC(n2ccc3c(NC4CCc5ccccc54)ncnc32)CC1O` (centres undefined), the viability, T/C is 19.9% and 20.9% (compound 0.00949 µM); 8.83% and 6.03% (compound 0.03 µM); 7.38% and 2.26% (compound 0.0949 µM); 4.17% and 1.57% (compound 0.3 µM); 8.44% and 0.8% (compound 0.949 µM); 6.16% and 0.67% (compound 3 µM). Further, the IC50 (curve of compound) was less than 9.49 nM.
Consider `Nc1ccccc1NC(=O)c1ccc(CNC(=O)OCc2cccnc2)cc1`, for which the viability, T/C reads like this: (compound 0.00949 µM) 92.7% and 64.7%; (compound 0.03 µM) 63.2% and 46.1%; (compound 0.0949 µM) 44.3% and 33.1%; (compound 0.3 µM) 22.8% and 16.8%; (compound 0.949 µM) 12.9% and 6.76%; (compound 3 µM) 10.3% and 0.3%. Besides, the IC50 (curve of compound) is 62 nM and 25.2 nM.
Turning to `O=C(C=Cc1cccc(S(=O)(=O)Nc2ccccc2)c1)NO`, the viability, T/C was 70% and 91.1% (compound 0.00949 µM); 60.1% and 44% (compound 0.03 µM); 32.8% and 28.1% (compound 0.0949 µM); 20.3% and 16.4% (compound 0.3 µM); 13.7% and 2.92% (compound 0.949 µM); 13.9% and 72.2% (compound 3 µM). Further, the IC50 (curve of compound) is 45.7 nM and 26 nM.
On to `O=C(c1cc(Cc2n[nH]c(=O)c3ccccc23)ccc1F)N1CCN(C(=O)C2CC2)CC1`, for which the viability, T/C is, setting by setting: (compound 0.0316 µM) 81.2% and 95.5%; (compound 0.1 µM) 92.8% and 89.7%; (compound 0.316 µM) 57.2% and 74.8%; (compound 1 µM) 17.2% and 46.9%; (compound 3.16 µM) 10.2% and 11.8%; (compound 10 µM) 7.83% and 6.41%. Also, where the note is “curve of compound”, the IC50 is 395 nM and 813 nM.
